Read-outs that look alike come from different tables or passages of the source.
What was measured:
Assay in all cases: Glasshouse assay for herbicidal activity (pre- and post-emergence), percentage phytotoxicity
Type in all cases: in vivo
[1] = test system: Alopecurus myosuroides (ALOMY); details: for pest or weed control at 250 g/ha: Alopecurus myosuroides
Procedure, shortened: (§1)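 Damage was rated visually as percent phytotoxicity, 100% meaning total kill, 20 days after pre-emergence application (made one day post-sowing) or 15 days after post-emergence application (made about 12 days post-sowing). Plants were grown under 16 h light, 65% humidity, warm species 24/18° C, cool 20/16° C.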

Avena fatua (AVEFA) = details: Avena fatua
Procedure, shortened: as §1

[2] = test system: Echinochloa crus-galli (ECHCG); details: Echinochloa crus-galli
Procedure, shortened: as §1

Lolium perenne (LOLPE) = details: Lolium perenne
Procedure, shortened: as §1

[3] = post-emergence, 360 h, Rate 250 g/ha, post-emergence, visual assessment 15 DAA, 100%=total damage, 0%=no damage, read-out: Post-emergence herbicidal activity (percentage phytotoxicity) ALOMY POST
[4] = pre-emergence, 480 h, Rate 250 g/ha, pre-emergence, visual assessment 20 DAA, 100%=total damage, 0%=no damage, read-out: Pre-emergence herbicidal activity (percentage phytotoxicity) ALOMY PRE
[5] = post-emergence, 360 h, Rate 250 g/ha, post-emergence, visual assessment 15 DAA, 100%=total damage, 0%=no damage, read-out: Post-emergence herbicidal activity (percentage phytotoxicity) AVEFA POST
[6] = pre-emergence, 480 h, Rate 250 g/ha, pre-emergence, visual assessment 20 DAA, 100%=total damage, 0%=no damage, read-out: Pre-emergence herbicidal activity (percentage phytotoxicity) AVEFA PRE
[7] = post-emergence, 360 h, Rate 250 g/ha, post-emergence, visual assessment 15 DAA, 100%=total damage, 0%=no damage, read-out: Post-emergence herbicidal activity (percentage phytotoxicity) ECHCG POST
[8] = pre-emergence, 480 h, Rate 250 g/ha, pre-emergence, visual assessment 20 DAA, 100%=total damage, 0%=no damage, read-out: Pre-emergence herbicidal activity (percentage phytotoxicity) ECHCG PRE
[9] = post-emergence, 360 h, Rate 250 g/ha, post-emergence, visual assessment 15 DAA, 100%=total damage, 0%=no damage, read-out: Post-emergence herbicidal activity (percentage phytotoxicity) LOLPE POST
[10] = pre-emergence, 480 h, Rate 250 g/ha, pre-emergence, visual assessment 20 DAA, 100%=total damage, 0%=no damage, read-out: Pre-emergence herbicidal activity (percentage phytotoxicity) LOLPE PRE
[11] = post-emergence, 360 h, 250 g/ha, post-emergence, 15 DAA, visual assessment (100%=total damage, 0%=no damage), read-out: Post-emergence herbicidal activity (percentage phytotoxicity) ALOMY POST
[12] = pre-emergence, 480 h, 250 g/ha, pre-emergence, 20 DAA, visual assessment (100%=total damage, 0%=no damage), read-out: Pre-emergence herbicidal activity (percentage phytotoxicity) ALOMY PRE
[13] = post-emergence, 360 h, 250 g/ha, post-emergence, 15 DAA, visual assessment (100%=total damage, 0%=no damage), read-out: Post-emergence herbicidal activity (percentage phytotoxicity) AVEFA POST
[14] = pre-emergence, 480 h, 250 g/ha, pre-emergence, 20 DAA, visual assessment (100%=total damage, 0%=no damage), read-out: Pre-emergence herbicidal activity (percentage phytotoxicity) AVEFA PRE
[15] = post-emergence, 360 h, 250 g/ha, post-emergence, 15 DAA, visual assessment (100%=total damage, 0%=no damage), read-out: Post-emergence herbicidal activity (percentage phytotoxicity) ECHCG POST
[16] = pre-emergence, 480 h, 250 g/ha, pre-emergence, 20 DAA, visual assessment (100%=total damage, 0%=no damage), read-out: Pre-emergence herbicidal activity (percentage phytotoxicity) ECHCG PRE
[17] = post-emergence, 360 h, 250 g/ha, post-emergence, 15 DAA, visual assessment (100%=total damage, 0%=no damage), read-out: Post-emergence herbicidal activity (percentage phytotoxicity) LOLPE POST
[18] = pre-emergence, 480 h, 250 g/ha, pre-emergence, 20 DAA, visual assessment (100%=total damage, 0%=no damage), read-out: Pre-emergence herbicidal activity (percentage phytotoxicity) LOLPE PRE
[19] = post-emergence, 360 h, Rate 250 g/ha, post-emergence, assessed visually 15 DAA, 100%=total damage, 0%=no damage, read-out: Post-emergence herbicidal activity (percentage phytotoxicity) ALOMY POST
[20] = pre-emergence, 480 h, Rate 250 g/ha, pre-emergence, assessed visually 20 DAA, 100%=total damage, 0%=no damage, read-out: Pre-emergence herbicidal activity (percentage phytotoxicity) ALOMY PRE
[21] = post-emergence, 360 h, Rate 250 g/ha, post-emergence, assessed visually 15 DAA, 100%=total damage, 0%=no damage, read-out: Post-emergence herbicidal activity (percentage phytotoxicity) AVEFA POST
[22] = pre-emergence, 480 h, Rate 250 g/ha, pre-emergence, assessed visually 20 DAA, 100%=total damage, 0%=no damage, read-out: Pre-emergence herbicidal activity (percentage phytotoxicity) AVEFA PRE
[23] = post-emergence, 360 h, Rate 250 g/ha, post-emergence, assessed visually 15 DAA, 100%=total damage, 0%=no damage, read-out: Post-emergence herbicidal activity (percentage phytotoxicity) ECHCG POST
[24] = pre-emergence, 480 h, Rate 250 g/ha, pre-emergence, assessed visually 20 DAA, 100%=total damage, 0%=no damage, read-out: Pre-emergence herbicidal activity (percentage phytotoxicity) ECHCG PRE
[25] = post-emergence, 360 h, Rate 250 g/ha, post-emergence, assessed visually 15 DAA, 100%=total damage, 0%=no damage, read-out: Post-emergence herbicidal activity (percentage phytotoxicity) LOLPE POST
[26] = pre-emergence, 480 h, Rate 250 g/ha, pre-emergence, assessed visually 20 DAA, 100%=total damage, 0%=no damage, read-out: Pre-emergence herbicidal activity (percentage phytotoxicity) LOLPE PRE
[27] = post-emergence, 360 h, POST-emergence, rate 250 g/ha, visual score 15 DAA (100%=total damage, 0%=no damage), read-out: Post-emergence herbicidal activity (percentage phytotoxicity) ALOMY POST
[28] = pre-emergence, 480 h, PRE-emergence, rate 250 g/ha, visual score 20 DAA (100%=total damage, 0%=no damage), read-out: Pre-emergence herbicidal activity (percentage phytotoxicity) ALOMY PRE
[29] = post-emergence, 360 h, POST-emergence, rate 250 g/ha, visual score 15 DAA (100%=total damage, 0%=no damage), read-out: Post-emergence herbicidal activity (percentage phytotoxicity) AVEFA POST
[30] = pre-emergence, 480 h, PRE-emergence, rate 250 g/ha, visual score 20 DAA (100%=total damage, 0%=no damage), read-out: Pre-emergence herbicidal activity (percentage phytotoxicity) AVEFA PRE
[31] = post-emergence, 360 h, POST-emergence, rate 250 g/ha, visual score 15 DAA (100%=total damage, 0%=no damage), read-out: Post-emergence herbicidal activity (percentage phytotoxicity) ECHCG POST
[32] = pre-emergence, 480 h, PRE-emergence, rate 250 g/ha, visual score 20 DAA (100%=total damage, 0%=no damage), read-out: Pre-emergence herbicidal activity (percentage phytotoxicity) ECHCG PRE
[33] = post-emergence, 360 h, POST-emergence, rate 250 g/ha, visual score 15 DAA (100%=total damage, 0%=no damage), read-out: Post-emergence herbicidal activity (percentage phytotoxicity) LOLPE POST
[34] = pre-emergence, 480 h, PRE-emergence, rate 250 g/ha, visual score 20 DAA (100%=total damage, 0%=no damage), read-out: Pre-emergence herbicidal activity (percentage phytotoxicity) LOLPE PRE

Compound	pest or weed control at 250 g/ha [1, 3] [%]	pest or weed control at 250 g/ha [1, 4] [%]	pest or weed control at 250 g/ha (Avena fatua (AVEFA); [5]) [%]	pest or weed control at 250 g/ha (Avena fatua (AVEFA); [6]) [%]	pest or weed control at 250 g/ha [2, 7] [%]	pest or weed control at 250 g/ha [2, 8] [%]	pest or weed control at 250 g/ha (Lolium perenne (LOLPE); [9]) [%]	pest or weed control at 250 g/ha (Lolium perenne (LOLPE); [10]) [%]	pest or weed control at 250 g/ha [1, 19] [%]	pest or weed control at 250 g/ha (Avena fatua (AVEFA); [21]) [%]	pest or weed control at 250 g/ha (Avena fatua (AVEFA); [22]) [%]	pest or weed control at 250 g/ha [2, 23] [%]	pest or weed control at 250 g/ha [2, 24] [%]	pest or weed control at 250 g/ha (Lolium perenne (LOLPE); [25]) [%]	pest or weed control at 250 g/ha (Lolium perenne (LOLPE); [26]) [%]	further results
Cc1ccc(CNC(=O)CC2CC(=O)C(c3c(C)cc(-c4ncc(Cl)cn4)cc3C)C2=O)cc1 (stereo not drawn) [Compound B355]	80	50	90	70	100	90	100	70								
CC#Cc1cc(C)c(C2C(=O)CC(CC(=O)NCCCOC)C2=O)c(C)c1 (stereo not drawn) [Compound B156]																pest or weed control at 250 g/ha [1, 11]: 100%; pest or weed control at 250 g/ha [1, 12]: 100%; pest or weed control at 250 g/ha (Avena fatua (AVEFA); [13]): 100%; pest or weed control at 250 g/ha (Avena fatua (AVEFA); [14]): 100%; pest or weed control at 250 g/ha [2, 15]: 100%; pest or weed control at 250 g/ha [2, 16]: 100%; pest or weed control at 250 g/ha (Lolium perenne (LOLPE); [17]): 100%; pest or weed control at 250 g/ha (Lolium perenne (LOLPE); [18]): 100%
COCC(C)NC(=O)CC1CC(=O)C(c2c(C)cc(-c3ncc(Cl)cn3)cc2C)C1=O (stereo not drawn) [Compound B346]	100	100	100	90	100	100	100	100								
C#Cc1ccc(CNC(=O)CC2CC(=O)C(c3c(C)cc(C)cc3C)C2=O)cc1 (stereo not drawn) [Compound B34]																pest or weed control at 250 g/ha [1, 11]: 60%; pest or weed control at 250 g/ha [1, 12]: 70%; pest or weed control at 250 g/ha (Avena fatua (AVEFA); [13]): 90%; pest or weed control at 250 g/ha (Avena fatua (AVEFA); [14]): 80%; pest or weed control at 250 g/ha [2, 15]: 100%; pest or weed control at 250 g/ha [2, 16]: 100%; pest or weed control at 250 g/ha (Lolium perenne (LOLPE); [17]): 80%; pest or weed control at 250 g/ha (Lolium perenne (LOLPE); [18]): 90%
CC#Cc1cc(C)c(C2C(=O)CC(CC(=O)NCc3ccsc3)C2=O)c(C)c1 (stereo not drawn) [Compound A55]									90	100	80	100	100	90	90	pest or weed control at 250 g/ha [1, 20]: 90%
Cc1cc(-c2ccc(C#N)cc2F)cc(C)c1C1C(=O)CC(CC(=O)NC(C)C)C1=O (stereo not drawn) [Compound A38]									80	100	90	90	100	80	90	pest or weed control at 250 g/ha [1, 20]: 80%
COCC(C)NC(=O)CC1CC(=O)C(c2c(C)cc(-c3ccc(F)cn3)cc2C)C1=O (stereo not drawn) [Compound B391]	90	90	100	100	100	100	90	100								
C=Cc1cc(-c2ccc(Cl)cn2)cc(C)c1C1C(=O)CC(CC(=O)NC(C)(C)C)C1=O (stereo not drawn) [Compound B376]	90	30	90	80	100	60	100	60								
CCc1cc(-n2cc(Cl)cn2)cc(C)c1C1C(=O)CC(CC(=O)NCc2ccc(OC)cc2)C1=O (stereo not drawn) [Compound B233]																pest or weed control at 250 g/ha [1, 27]: 60%; pest or weed control at 250 g/ha [1, 28]: 70%; pest or weed control at 250 g/ha (Avena fatua (AVEFA); [29]): 70%; pest or weed control at 250 g/ha (Avena fatua (AVEFA); [30]): 60%; pest or weed control at 250 g/ha [2, 31]: 100%; pest or weed control at 250 g/ha [2, 32]: 70%; pest or weed control at 250 g/ha (Lolium perenne (LOLPE); [33]): 70%; pest or weed control at 250 g/ha (Lolium perenne (LOLPE); [34]): 70%
C#CCNC(=O)CC1CC(=O)C(c2c(C)cc(/C=C/C)cc2C)C1=O (stereo not drawn) [Compound B174]																pest or weed control at 250 g/ha [1, 27]: 100%; pest or weed control at 250 g/ha [1, 28]: 100%; pest or weed control at 250 g/ha (Avena fatua (AVEFA); [29]): 90%; pest or weed control at 250 g/ha (Avena fatua (AVEFA); [30]): 70%; pest or weed control at 250 g/ha [2, 31]: 100%; pest or weed control at 250 g/ha [2, 32]: 90%; pest or weed control at 250 g/ha (Lolium perenne (LOLPE); [33]): 90%; pest or weed control at 250 g/ha (Lolium perenne (LOLPE); [34]): 100%
Cc1cc(-c2cnc(Cl)cn2)cc(C)c1C1C(=O)CC(CC(=O)NCc2cccc(C(F)(F)F)c2)C1=O (stereo not drawn) [Compound A133]									90	100	90	100	90	80	80	Pre-emergence herbicidal activity (percentage phytotoxicity) ALOMY PRE ([1]; Rate 250 g/ha, pre-emergence, assessed visually 20 DAA, 100%=total damage, 0%=no damage): 30%
CC#Cc1cc(C)c(C2C(=O)CC(CC(=O)N(C)CCC)C2=O)c(C)c1 (stereo not drawn) [Compound A61]									100	100	90	100	100	90	100	pest or weed control at 250 g/ha [1, 20]: 100%

— US10206394B2, “Herbicidal compounds” (Syngenta Participations AG, priority 2014, dated 2019)
